# Laboratory results: article PMC10985088, “Synthesis and biological evaluation of echinomycin analogues as potential colon cancer agent” (Scientific Reports, 2024)
# Read-outs that look alike come from different tables or passages of the source.
# What was measured:
# [1] = tested on: SW620 cells; assay: WST-8 cytotoxicity assay, SW620; conditions: read-out: IC50 SW620; human colon cancer cell, 72 h, mean ± SE (n = 3)
# Description: (§1) With a range of chromophore analogues in hand, their toxicity to SW620 cells was investigated by WST assays.
# (§2) Basically, the evaluation was performed using methods previously reported by our group[20],[23]. Cytotoxic activities of compounds against MIA PaCa-2 (American Type Culture Collection), SW620 (European Collection of Authenticated Cell Cultures) were measured by WST-8 assay according to manufacturer’s protocol. Briefly, cells (1 × 10^4 cells/well) in a 96-well plate were cultured in medium (for MIA PaCa-2, D-MEM (Wako, Japan) containing 10% fetal bovine serum (Funakoshi, Japan), 100 units/mL penicillin G and 100 µg/mL streptomycin (Wako, Japan), for SW620, RPMI-1640 (Wako, Japan) containing 10% fetal bovine serum, 100 units/mL penicillin G and 100 µg/mL streptomycin) were cultured at 37 °C for 24 h under 5% CO2 atmosphere. Then, cells were treated with test compounds (final DMSO concentration was 1%) at 37 °C for 72 h under 5% CO2 atmosphere. Then, cells were treated with a solution of Cell Counting Kit-8® (Dojindo, Japan) for 3 h. After that, cell viabilities were determined based on the measurement of absorption at 450 nm of the wells by using TECAN Infinite® M200 microplate reader. The results were expressed as a percentage of the negative control (cells treated with DMSO only), and that value was fixed at 100%.
# [2] = tested on: MIA PaCa-2 cells; conditions: read-out: IC50 MIA PaCa-2; human pancreatic carcinoma cell, 72 h, mean ± SE (n = 3)
# Description: as §1, §2
# [3] = Hepatic microsomal stability assay, human; type: in vitro ADME; conditions: microsomes, 1 μM, 0.2 mg/mL microsomes, 37 °C, 30 min
# Description: Before investigating the in vivo efficacy of 3, its metabolic stability was evaluated by treatment with human or mouse liver microsomes at 37 °C for 30 min, and the remaining analogues were analyzed by LC–MS/MS (Table 3). […] This means that approximately 67% of 3 was unaffected by human liver microsomes.
# Basically, the analysis was performed using methods previously reported. Disappearance of the parent compound over time was measured by using the amount of drug at time zero as a reference. After 5 min of preincubation, 1 mM NADPH (final concentration, the same applies to the following, NADPH( +)) or 0.1 M phosphate buffer (pH 7.4, NADPH(−))) was added to a mixture containing 1 μM of the test compound, 0.2 mg/mL of human or mouse liver microsomes (Sekisui XenoTech LLC (Kansas City, KS)), 1 mM EDTA and 0.1 M phosphate buffer (pH 7.4) and incubated at 37 °C for 30 min by rotation at 60 rpm. An aliquot of 50 μL of the incubation mixture was sampled and added to 250 μL of chilled acetonitrile/internal standard (IS). After centrifuging for 15 min at 3150×g (4 °C), the supernatants were analyzed by LC–MS/MS. Hepatic microsomal stability (mL/min/kg, CLint) was calculated according to the previous report, using 48.8 and 45.4 mg MS protein/g liver and 25.7 and 87.5 g liver/kg body weight as scaling factors for human and mouse, respectively.
# Basically, the analysis was performed using methods previously reported. An LC-MS8060 instrument equipped with a Shimadzu Nexera series LC system (Shimadzu, Kyoto, Japan) was used. All compounds were analyzed in multi-reaction monitoring mode under electron spray ionization conditions. The analytical column used was a […] C18 MGIII (3 μm × 2.0 mmID × 35 mm; OSAKA SODA, Osaka, Japan) at 50 °C. The gradient mobile phase consisted of 0.1% formic acid in water (mobile phase A,) and 0.1% formic acid in acetonitrile (mobile phase B) at a total flow rate of 1 mL/min. The initial mobile phase composition was 10% B, which was held constant for 0.2 min, increased in a linear fashion to 90% B over 1 min, then held constant for 0.8 min, and finally brought back to the initial condition of 10% B over 0.01 min and re-equilibrated for 1 min. The transitions (precursor ion > product ion) of echinomycin, 3 and IS (methyl testosterone) are 1101.45 > 1053.5 (positive), 1083.5 > 523.95 (negative), and 303.1 > 109.1 (positive), respectively.
# [4] = tested on: SW620 xenograft; assay: SW620 xenograft mouse model; type: in vivo; conditions: i.p. 0.04 and 0.4 µg/mouse daily for 10 days, compared to PBS-injected group
# Description: Since the metabolic stability and identification of the maximum tolerated dose of 3 were confirmed, the effect of 3 on colon cancer progression in vivo was then investigated (Fig. 7). A xenograft model was generated by injecting a suspension of 2 × 10^6 SW620 cells into the backs of nude mice. The doses of the compounds were 0.04 and 0.4 µg/mouse, which correspond to approximately 1.6 and 16 μg/kg, respectively, according to the results obtained in Fig. S1. A solution of 1, 3, or PBS was injected intraperitoneally into each mouse, and tumor sizes were measured each day. […] Of note is the efficacy of tumor growth inhibition with 3.
# Figure 7 In vivo anticancer activity of echinomycin and 3 on the SW620 xenograft mice model. Male BALB/C nude mice were administered by intraperitoneal injection with the vehicle, echinomycin and 3, at dosages of 0.04 and 0.4 µg/mice (n = 10 each group), every day for 10 days (a, b). Average tumor volume (c) was measured. Data are expressed as the mean ± standard error ([…]). *Indicates P < 0.05 by Student's t test. The error bars show the s.d. (n = 10).
# Basically, the experiments were performed using methods previously reported. […] The tumor size was calculated by the following formula: Tumor size (mm^2) = (major diameter) × (minor diameter).
smiles,measurement,setting,value
"CS[C@H]1SC[C@H]2C(=O)N(C)[C@@H](C(C)C)C(=O)OC[C@@H](NC(=O)c3cnc4ccccc4n3)C(=O)N[C@@H](C)C(=O)N(C)[C@@H]1C(=O)N(C)[C@@H](C(C)C)C(=O)OC[C@@H](NC(=O)c1cnc3ccccc3n1)C(=O)N[C@@H](C)C(=O)N2C [Compound 1, Echinomycin]",IC50,[1],2.5 ± 0.8 nM
same,IC50,[2],0.75 ± 0.02 nM
same,CLint scaled,"[3]; NADPH(+), read-out: Metabolic stability (CLint) Human NADPH(+)",< 22 mL/min/kg
same,CLint scaled,"[3]; NADPH(−), read-out: Metabolic stability (CLint) Human NADPH(−)",< 22 mL/min/kg
same,tumor growth,[4],significantly suppressed
